From patent US20240239861A1, “GLUCAGON-RECEPTOR SELECTIVE POLYPEPTIDES AND METHODS OF USE THEREOF” (i2O Therapeutics, Inc., priority 2016, published 2024)
Where a SMILES comes first, the peptide text is derived from it. [ ]: non-standard residue; d: D form. Aib = CC(C)(N)C(=O)O

Tests used:
[1] = molecular target: human GCGR (Homo sapiens, UniProt P47871); experiment: Peptide-receptor mediated cAMP accumulation (LANCE Ultra cAMP) in CHO-K1 cells transfected with human GCGR; type: cell-based; settings: Table 3
[2] = molecular target: human GLP-1R (Homo sapiens, UniProt P43220); experiment: Peptide-receptor mediated cAMP accumulation (LANCE Ultra cAMP) in CHO-K1 cells transfected with human GLP-1R; type: cell-based; settings: hGLP1 pEC50 (cAMP mean (n = 3): 11 point curve starting at 1 nM, Table 3)
[3] = in vivo; settings: male, rat

Sequence of human GLP-1R (P43220 24-463): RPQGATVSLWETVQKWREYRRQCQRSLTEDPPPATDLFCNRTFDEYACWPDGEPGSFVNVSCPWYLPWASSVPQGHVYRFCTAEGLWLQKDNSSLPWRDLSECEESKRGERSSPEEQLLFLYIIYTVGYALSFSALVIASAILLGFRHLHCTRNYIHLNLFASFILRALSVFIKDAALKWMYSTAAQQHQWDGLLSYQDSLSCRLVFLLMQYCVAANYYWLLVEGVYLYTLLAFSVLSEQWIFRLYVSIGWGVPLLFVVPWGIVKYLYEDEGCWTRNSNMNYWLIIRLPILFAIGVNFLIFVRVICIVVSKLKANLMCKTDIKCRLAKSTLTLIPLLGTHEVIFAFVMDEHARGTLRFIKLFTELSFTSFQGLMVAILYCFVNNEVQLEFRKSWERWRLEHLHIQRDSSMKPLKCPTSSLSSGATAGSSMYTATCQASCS
Sequence of human GCGR (P47871 26-477): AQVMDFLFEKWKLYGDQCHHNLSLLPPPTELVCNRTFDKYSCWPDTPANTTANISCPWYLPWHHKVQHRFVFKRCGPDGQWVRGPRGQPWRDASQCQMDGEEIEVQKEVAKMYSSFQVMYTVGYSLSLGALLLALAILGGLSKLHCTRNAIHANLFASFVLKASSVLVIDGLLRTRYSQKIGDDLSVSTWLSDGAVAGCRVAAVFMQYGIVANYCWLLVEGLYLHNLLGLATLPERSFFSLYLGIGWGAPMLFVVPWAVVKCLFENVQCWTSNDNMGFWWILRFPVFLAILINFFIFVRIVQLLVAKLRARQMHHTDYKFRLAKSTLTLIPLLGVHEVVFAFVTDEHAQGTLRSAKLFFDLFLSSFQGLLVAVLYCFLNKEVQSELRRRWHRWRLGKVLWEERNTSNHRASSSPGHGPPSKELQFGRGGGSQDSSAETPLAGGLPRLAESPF

Row | EC50 [1] [pM] | Compound | EC50 [2] [pM] | clearance [3] [mL/min/kg]
1 | 3.98 | CC(C)C[C@H](NC(=O)[C@H](Cc1ccc(O)cc1)NC(=O)[C@H](CCCCN)NC(=O)[C@H](CO)NC(=O)[C@H](Cc1ccc(O)cc1)NC(=O)[C@H](CC(=O)O)NC(=O)[C@H](CO)NC(=O)[C@@H](NC(=O)[C@H](Cc1ccccc1)NC(=O)[C@@H](NC(=O)CNC(=O)[C@H](Cc1c[nH]cn1)NC(=O)[C@H](CO)NC(=O)[C@@H](N)Cc1ccc(O)cc1)[C@@H](C)O)[C@@H](C)O)C(=O)N[C@@H](CC(=O)O)C(=O)N[C@@H](CO)C(=O)N[C@@H](C)C(=O)N[C@@H](CCCNC(=N)N)C(=O)N[C@@H](C)C(=O)N[C@@H](CCC(N)=O)C(=O)N[C@@H](CCC(=O)O)C(=O)N[C@@H](Cc1ccccc1)C(=O)N[C@H](C(=O)N[C@@H](CCCCN)C(=O)N[C@@H](Cc1c[nH]c2ccccc12)C(=O)N[C@@H](CC(C)C)C(=O)N[C@@H](CCC(=O)O)C(=O)N[C@@H](CC(=O)O)C(=O)N[C@@H](CCC(=O)O)C(=O)N1CCC[C@H]1C(=O)N[C@@H](CO)C(=O)N[C@@H](CO)C(=O)NCC(=O)N[C@@H](CCCCN)C(=O)N1CCC[C@H]1C(=O)N1CCC[C@H]1C(=O)N1CCC[C@H]1C(=O)N[C@@H](CO)C(=O)O)C(C)C [Compound A61] (H-YSHGTFTSDYSKYLDSARAQEFVKWLEDEPSSGKPPPS-OH; N-terminus assumed) | > 1000 | 29.4
2 | 1 | CC(C)C[C@H](NC(=O)[C@H](Cc1ccc(O)cc1)NC(=O)[C@H](CCCCN)NC(=O)[C@H](CO)NC(=O)[C@H](Cc1ccc(O)cc1)NC(=O)[C@H](CC(=O)O)NC(=O)[C@H](CO)NC(=O)[C@@H](NC(=O)[C@H](Cc1ccccc1)NC(=O)[C@@H](NC(=O)CNC(=O)[C@H](Cc1c[nH]cn1)NC(=O)[C@H](CO)NC(=O)[C@@H](N)Cc1ccc(O)cc1)[C@@H](C)O)[C@@H](C)O)C(=O)N[C@@H](CC(=O)O)C(=O)N[C@@H](CO)C(=O)N[C@@H](C)C(=O)N[C@@H](CCCNC(=N)N)C(=O)N[C@@H](C)C(=O)N[C@@H](CCC(N)=O)C(=O)N[C@@H](CCC(=O)O)C(=O)N[C@@H](Cc1ccccc1)C(=O)N[C@H](C(=O)N[C@@H](CCCCN)C(=O)N[C@@H](Cc1c[nH]c2ccccc12)C(=O)N[C@@H](CC(C)C)C(=O)N[C@@H](CCC(=O)O)C(=O)N[C@@H](CC(=O)O)C(=O)N[C@@H](CCC(=O)O)C(=O)N1CCC[C@H]1C(=O)N[C@@H](CCCCN)C(=O)N[C@@H](CO)C(=O)N[C@@H](CCCCN)C(=O)N[C@@H](CO)C(=O)N1CCC[C@H]1C(=O)N1CCC[C@H]1C(=O)N1CCC[C@H]1C(=O)N[C@@H](CO)C(=O)O)C(C)C [Compound A70] (H-YSHGTFTSDYSKYLDSARAQEFVKWLEDEPKSKSPPPS-OH; N-terminus assumed) | > 1000 | 20.9
3 | 2 | CC(C)C[C@H](NC(=O)[C@H](Cc1ccc(O)cc1)NC(=O)[C@H](CCCCN)NC(=O)[C@H](CO)NC(=O)[C@H](Cc1ccc(O)cc1)NC(=O)[C@H](CC(=O)O)NC(=O)[C@H](CO)NC(=O)[C@@H](NC(=O)[C@H](Cc1ccccc1)NC(=O)[C@@H](NC(=O)CNC(=O)[C@H](Cc1c[nH]cn1)NC(=O)[C@H](CO)NC(=O)[C@@H](N)Cc1ccc(O)cc1)[C@@H](C)O)[C@@H](C)O)C(=O)N[C@@H](CC(=O)O)C(=O)N[C@@H](CO)C(=O)N[C@@H](C)C(=O)N[C@@H](CCCNC(=N)N)C(=O)N[C@@H](C)C(=O)N[C@@H](CCC(N)=O)C(=O)N[C@@H](CCC(=O)O)C(=O)N[C@@H](Cc1ccccc1)C(=O)N[C@H](C(=O)N[C@@H](CCCCN)C(=O)N[C@@H](Cc1c[nH]c2ccccc12)C(=O)N[C@@H](CC(C)C)C(=O)N[C@@H](CCC(=O)O)C(=O)N[C@@H](CC(=O)O)C(=O)N[C@@H](CCC(=O)O)C(=O)N1CCC[C@H]1C(=O)N[C@@H](CCCCN)C(=O)N[C@@H](CO)C(=O)N[C@@H](CCCCN)C(=O)N[C@@H](CO)C(=O)N1CCC[C@H]1C(=O)N1CCC[C@H]1C(=O)N1CCC[C@H]1C(=O)N[C@@H](CO)C(N)=O)C(C)C [Compound A73] (H-YSHGTFTSDYSKYLDSARAQEFVKWLEDEPKSKSPPPS-NH2; N-terminus assumed) | > 1000 | 23
4 | – | CC(C)C[C@H](NC(=O)[C@H](Cc1ccc(O)cc1)NC(=O)[C@H](CCCCN)NC(=O)[C@H](CO)NC(=O)[C@H](Cc1ccc(O)cc1)NC(=O)[C@H](CC(=O)O)NC(=O)[C@H](CO)NC(=O)[C@@H](NC(=O)[C@H](Cc1ccccc1)NC(=O)[C@@H](NC(=O)CNC(=O)[C@H](CCC(N)=O)NC(=O)[C@H](CO)NC(=O)[C@@H](N)Cc1ccc(O)cc1)[C@@H](C)O)[C@@H](C)O)C(=O)N[C@@H](CC(=O)O)C(=O)NC(C)(C)C(=O)N[C@@H](CCCCN)C(=O)N[C@@H](CCCNC(=N)N)C(=O)N[C@@H](C)C(=O)N[C@@H](CCC(N)=O)C(=O)N[C@@H](CCC(=O)O)C(=O)N[C@@H](Cc1ccccc1)C(=O)N[C@H](C(=O)NC(C)(C)C(=O)N[C@@H](Cc1c[nH]c2ccccc12)C(=O)N[C@@H](CC(C)C)C(=O)N[C@@H](CCC(=O)O)C(=O)N[C@@H](CC(=O)O)C(=O)N[C@@H](CCC(=O)O)C(=O)N1CCC[C@H]1C(=O)N[C@@H](CO)C(=O)N[C@@H](CO)C(=O)NCC(=O)N[C@@H](C)C(=O)N1CCC[C@H]1C(=O)N1CCC[C@H]1C(=O)N1CCC[C@H]1C(=O)N[C@@H](CO)C(=O)O)C(C)C [Compound A94] (H-YSQGTFTSDYSKYLD[Aib]KRAQEFV[Aib]WLEDEPSSGAPPPS-OH; N-terminus assumed) | > 1000 | 16.5
5 | – | CC(C)C[C@H](NC(=O)[C@H](Cc1ccc(O)cc1)NC(=O)[C@H](CCCCN)NC(=O)[C@H](CO)NC(=O)[C@H](Cc1ccc(O)cc1)NC(=O)[C@H](CC(=O)O)NC(=O)[C@H](CO)NC(=O)[C@@H](NC(=O)[C@H](Cc1ccccc1)NC(=O)[C@@H](NC(=O)CNC(=O)[C@H](CCC(N)=O)NC(=O)[C@H](CO)NC(=O)[C@@H](N)Cc1ccc(O)cc1)[C@@H](C)O)[C@@H](C)O)C(=O)N[C@@H](CC(=O)O)C(=O)NC(C)(C)C(=O)N[C@@H](CCCCN)C(=O)N[C@@H](C)C(=O)N[C@@H](C)C(=O)N[C@@H](CCC(N)=O)C(=O)N[C@@H](CCC(=O)O)C(=O)N[C@@H](Cc1ccccc1)C(=O)N[C@H](C(=O)NC(C)(C)C(=O)N[C@@H](Cc1c[nH]c2ccccc12)C(=O)N[C@@H](CC(C)C)C(=O)N[C@@H](CCC(=O)O)C(=O)N[C@@H](CC(=O)O)C(=O)N[C@@H](CCC(=O)O)C(=O)N1CCC[C@H]1C(=O)N[C@@H](CO)C(=O)N[C@@H](CO)C(=O)NCC(=O)N[C@@H](C)C(=O)N1CCC[C@H]1C(=O)N1CCC[C@H]1C(=O)N1CCC[C@H]1C(=O)N[C@@H](CO)C(=O)O)C(C)C [Compound A95] (H-YSQGTFTSDYSKYLD[Aib]KAAQEFV[Aib]WLEDEPSSGAPPPS-OH; N-terminus assumed) | > 1000 | 15.4

Row | Compound | EC50 [1] [pM] | EC50 [2] [pM] | clearance [3] [mL/min/kg]
6 | CC(C)C[C@H](NC(=O)[C@H](Cc1ccc(O)cc1)NC(=O)[C@H](CCCCN)NC(=O)[C@H](CO)NC(=O)[C@H](Cc1ccc(O)cc1)NC(=O)[C@H](CC(=O)O)NC(=O)[C@H](CO)NC(=O)[C@@H](NC(=O)[C@H](Cc1ccccc1)NC(=O)[C@@H](NC(=O)CNC(=O)[C@H](Cc1c[nH]cn1)NC(=O)[C@H](CO)NC(=O)[C@@H](N)Cc1ccc(O)cc1)[C@@H](C)O)[C@@H](C)O)C(=O)N[C@@H](CC(=O)O)C(=O)N[C@@H](CCCCN)C(=O)N[C@@H](C)C(=O)N[C@@H](CCCNC(=N)N)C(=O)N[C@@H](C)C(=O)N[C@@H](CCC(N)=O)C(=O)N[C@@H](CCC(=O)O)C(=O)N[C@@H](Cc1ccccc1)C(=O)N[C@H](C(=O)N[C@@H](CCCCN)C(=O)N[C@@H](Cc1c[nH]c2ccccc12)C(=O)N[C@@H](CC(C)C)C(=O)N[C@@H](CCC(=O)O)C(=O)N[C@@H](CC(=O)O)C(=O)N[C@@H](CCC(=O)O)C(=O)N1CCC[C@H]1C(=O)N[C@@H](CO)C(=O)N[C@@H](CO)C(=O)NCC(=O)N[C@@H](C)C(=O)N1CCC[C@H]1C(=O)N1CCC[C@H]1C(=O)N1CCC[C@H]1C(=O)N[C@@H](CO)C(=O)O)C(C)C [Compound A43] (H-YSHGTFTSDYSKYLDKARAQEFVKWLEDEPSSGAPPPS-OH; N-terminus assumed) | 1.58 | > 1000 | 47
7 | CC(C)C[C@H](NC(=O)[C@H](Cc1ccc(O)cc1)NC(=O)[C@H](CCCCN)NC(=O)[C@H](CO)NC(=O)[C@H](Cc1ccc(O)cc1)NC(=O)[C@H](CC(=O)O)NC(=O)[C@H](CO)NC(=O)[C@@H](NC(=O)[C@H](Cc1ccccc1)NC(=O)[C@@H](NC(=O)CNC(=O)[C@H](Cc1c[nH]cn1)NC(=O)[C@H](CO)NC(=O)[C@@H](N)Cc1ccc(O)cc1)[C@@H](C)O)[C@@H](C)O)C(=O)N[C@@H](CC(=O)O)C(=O)N[C@@H](CCC(N)=O)C(=O)N[C@@H](C)C(=O)N[C@@H](CCCNC(=N)N)C(=O)N[C@@H](C)C(=O)N[C@@H](CCC(N)=O)C(=O)N[C@@H](CCC(=O)O)C(=O)N[C@@H](Cc1ccccc1)C(=O)N[C@H](C(=O)N[C@@H](CCCCN)C(=O)N[C@@H](Cc1c[nH]c2ccccc12)C(=O)N[C@@H](CC(C)C)C(=O)N[C@@H](CCC(=O)O)C(=O)N[C@@H](CC(=O)O)C(=O)N[C@@H](CCC(=O)O)C(=O)N1CCC[C@H]1C(=O)N[C@@H](CO)C(=O)N[C@@H](CO)C(=O)NCC(=O)N[C@@H](C)C(=O)N1CCC[C@H]1C(=O)N1CCC[C@H]1C(=O)N1CCC[C@H]1C(=O)N[C@@H](CO)C(=O)O)C(C)C [Compound A44] (H-YSHGTFTSDYSKYLDQARAQEFVKWLEDEPSSGAPPPS-OH; N-terminus assumed) | 1.26 | > 1000 | 23.9
